Columns and labels:
[1] = target: T1, Transient receptor potential cation channel subfamily V member 1 (Homo sapiens, UniProt Q8NER1); experiment: Antagonist activity at human TRPV1 assessed as inhibition of capsaicin-induced effect by FLIPR assay
[2] = target: T1, Transient receptor potential cation channel subfamily V member 1; experiment: Antagonist activity at human TRPV1 assessed as inhibition of capsaicin-induced effect at 1 uM by FLIPR assay
[3] = target: T1, Transient receptor potential cation channel subfamily V member 1; experiment: Antagonist activity at human TRPV1 assessed as inhibition of pH-induced effect at 1 uM by FLIPR assay
[4] = target: T1, Transient receptor potential cation channel subfamily V member 1; experiment: Antagonist activity at human TRPV1 assessed as inhibition of NADA-induced effect at 1 uM by FLIPR assay
[5] = target: T1, Transient receptor potential cation channel subfamily V member 1; experiment: Antagonist activity at human TRPV1 assessed as inhibition of 45 degC heat-induced effect at 1 uM by FLIPR assay
[6] = test system: Mus musculus; experiment: Analgesic activity in formalin-induced mouse pain model at 0.3 mg/kg, po; format: functional
[7] = test system: Mus musculus; experiment: Analgesic activity in formalin-induced mouse pain model at 10 mg/kg, po; format: functional

T1 sequence (Q8NER1 whole entry): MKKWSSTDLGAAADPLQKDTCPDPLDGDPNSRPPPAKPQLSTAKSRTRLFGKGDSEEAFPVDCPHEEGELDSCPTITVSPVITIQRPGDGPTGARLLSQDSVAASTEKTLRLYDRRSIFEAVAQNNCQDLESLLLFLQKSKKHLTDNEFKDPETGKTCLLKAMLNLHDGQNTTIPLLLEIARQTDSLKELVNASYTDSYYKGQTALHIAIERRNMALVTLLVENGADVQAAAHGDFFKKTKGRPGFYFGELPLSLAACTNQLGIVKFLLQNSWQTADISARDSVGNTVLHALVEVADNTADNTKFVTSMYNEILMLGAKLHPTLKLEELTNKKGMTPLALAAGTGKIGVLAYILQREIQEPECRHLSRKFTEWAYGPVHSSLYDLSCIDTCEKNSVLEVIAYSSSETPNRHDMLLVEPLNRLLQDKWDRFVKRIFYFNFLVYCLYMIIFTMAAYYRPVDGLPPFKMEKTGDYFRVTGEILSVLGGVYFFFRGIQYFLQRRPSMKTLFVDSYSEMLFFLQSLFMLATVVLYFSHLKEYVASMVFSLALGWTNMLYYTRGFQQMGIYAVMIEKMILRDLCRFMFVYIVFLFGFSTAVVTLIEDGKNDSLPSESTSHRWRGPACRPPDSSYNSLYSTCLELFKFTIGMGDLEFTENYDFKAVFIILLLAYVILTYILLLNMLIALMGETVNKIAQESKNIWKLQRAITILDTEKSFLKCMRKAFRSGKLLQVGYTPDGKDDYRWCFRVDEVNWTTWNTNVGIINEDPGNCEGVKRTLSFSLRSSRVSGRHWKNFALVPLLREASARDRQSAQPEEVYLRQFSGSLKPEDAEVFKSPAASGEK

With `CC1CCN(c2nc(C(F)(F)F)ccc2CNC(=O)Nc2ccc3cncnc3c2)CC1` the Ki ([1]; read-out: Ki) was 7.8 nM.
`CC1CCN(c2nc(C(F)(F)F)ccc2CNC(=O)Nc2ccc3ncncc3c2)CC1` was tested, and the Ki [1] was “Agonist”.
`CC1CCN(c2nc(C(F)(F)F)ccc2CNC(=O)Nc2ccc3ccccc3n2)CC1` was tested, and the Ki [1] was “Not Active”.
For `O=C(NCc1ccc(C(F)(F)F)cc1)Nc1cccc2cnccc12`, the Ki ([1]; read-out: Ki) was 18.3 nM.
In the case of `CC1CCN(c2nc(C(F)(F)F)ccc2CNC(=O)Nc2ccc3cnncc3c2)CC1`, the Ki ([1]; read-out: Ki) is reported as 8.9 nM.
`CC1CCN(c2nc(C(F)(F)F)ccc2CNC(=O)Nc2ccc3ncccc3c2)CC1` gave an inhibition [2] of 40%.
With `CC1CCN(c2nc(C(F)(F)F)ccc2CNC(=O)Nc2nccc3cccnc23)CC1` the Ki [1] was “Not Active”.
Compound `CC1CCN(c2nc(C(F)(F)F)ccc2CNC(=O)Nc2cccc3cccnc23)CC1` has a Ki ([1]; read-out: Ki) of 91.6 nM.
With `CC1CCN(c2nc(C(F)(F)F)ccc2CNC(=O)Nc2cccc3cnccc23)CC1` the Ki ([1]; read-out: Ki) was 0.2 nM, the IC50 [3] was “Not Active” and the Ki [4] was 0.02 nM. For the same compound, the IC50 [5] was 0.55 nM, the MPE [6] was 18% and the MPE [7] was 73%.
`CC1CCN(c2nc(C(F)(F)F)ccc2CNC(=O)Nc2ccnc3ccccc23)CC1` was tested, and the Ki [1] was “Agonist”.
In the case of `CC1CCN(c2nc(C(F)(F)F)ccc2CNC(=O)Nc2cccc3nccnc23)CC1`, the Ki ([1]; read-out: Ki) is reported as 48.1 nM.
`CC(C)(C)c1ccc(CNC(=O)Nc2cccc3cnccc23)cc1` showed a Ki ([1]; read-out: Ki) of 13.8 nM.
`CC1CCN(c2nc(C(F)(F)F)ccc2CNC(=O)Nc2cccc3ncccc23)CC1` gave a Ki ([1]; read-out: Ki) of 0.7 nM.
`CC1CCN(c2nc(C(F)(F)F)ccc2CNC(=O)Nc2ccc3ccncc3c2)CC1` was tested, and the Ki ([1]; read-out: Ki) was 8.4 nM.
Compound `CC1CCN(c2nc(C(F)(F)F)ccc2CNC(=O)Nc2ccc3cccnc3c2)CC1` has a Ki ([1]; read-out: Ki) of 7.1 nM.
`CC1CCN(c2nc(C(F)(F)F)ccc2CNC(=O)Nc2cncc3ccccc23)CC1` was tested, and the Ki ([1]; read-out: Ki) was 1.8 nM.
In the case of `CC1CCN(c2nc(C(F)(F)F)ccc2CNC(=O)Nc2cnc3ccccc3c2)CC1`, the Ki ([1]; read-out: Ki) is reported as 9.5 nM.
In the case of `CC1CCN(c2nc(C(F)(F)F)ccc2CNC(=O)Nc2cccc3ccncc23)CC1`, the Ki ([1]; read-out: Ki) is reported as 0.4 nM.
With `CC1CCN(c2nc(C(F)(F)F)ccc2CNC(=O)Nc2ccc3cnccc3c2)CC1` the Ki ([1]; read-out: Ki) was 7.2 nM.
For `CC1CCN(c2nc(C(F)(F)F)ccc2CNC(=O)Nc2cc3ccccc3cn2)CC1`, the inhibition [2] was 10%.
With `CC1CCN(c2nc(C(F)(F)F)ccc2CNC(=O)Nc2nccc3ccccc23)CC1` the Ki [1] was “Not Active”.

— ChEMBL document CHEMBL3393055, “6,6-Fused heterocyclic ureas as highly potent TRPV1 antagonists” (Bioorg Med Chem Lett, 2015)
